Results published in ChEMBL document CHEMBL1201862, “PubChem BioAssay data set” (2004).
Structures can show the parent of a compound that is named as a salt.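 Values below derive from 48-hour exposures of cells grown in 96-well plates, with endpoints linearly interpolated between the two concentrations bracketing the appropriate inhibition level. GI50: concentration for 50% inhibition of growth.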 The source made the active and inactive calls. No stated cut-off is given here; in the data, active = GI50 up to about 1.1 µM and inactive = higher.

Legend:
Assay in all cases: NCI anticancer screen, dose series, 48 h
SN12C = tested on: SN12C
OVCAR-8 = tested on: OVCAR-8
TK-10 = tested on: TK-10
HCT-15 = tested on: HCT-15
UACC-62 = tested on: UACC-62
OVCAR-5 = tested on: OVCAR-5
OVCAR-3 = tested on: OVCAR-3
SR = tested on: SR
RXF 393 = tested on: RXF 393
PC-3 = tested on: PC-3
A549 = tested on: A549
COLO 205 = tested on: COLO 205
NCI-H460 = tested on: NCI-H460
SK-MEL-28 = tested on: SK-MEL-28
SF-295 = tested on: SF-295
K562 = tested on: K562
NCI-H23 = tested on: NCI-H23
MDA-MB-435 = tested on: MDA-MB-435
A498 = tested on: A498
HL-60 = tested on: HL-60

| SMILES | GI50 (SN12C) | GI50 (OVCAR-8) | GI50 (TK-10) | GI50 (HCT-15) | GI50 (UACC-62) | GI50 (OVCAR-5) | GI50 (OVCAR-3) | GI50 (SR) | GI50 (RXF 393) | GI50 (PC-3) | GI50 (A549) | GI50 (COLO 205) | GI50 (NCI-H460) | GI50 (SK-MEL-28) | GI50 (SF-295) | GI50 (K562) | GI50 (NCI-H23) | GI50 (MDA-MB-435) | GI50 (A498) | GI50 (HL-60) |
| --- | --- | --- | --- | --- | --- | --- | --- | --- | --- | --- | --- | --- | --- | --- | --- | --- | --- | --- | --- | --- |
| CC1(C)O[C@@H](CP(c2cccc3ccccc23)c2cccc3ccccc23)[C@H](CP(c2cccc3ccccc23)c2cccc3ccccc23)O1 | > 100 µM (inactive) | > 100 µM (inactive) | > 100 µM (inactive) | > 100 µM | > 100 µM (inactive) | > 100 µM (inactive) | > 100 µM (inactive) | > 100 µM (inactive) | > 100 µM (inactive) | > 100 µM (inactive) | > 100 µM (inactive) | > 100 µM (inactive) | > 100 µM (inactive) | > 100 µM (inactive) | > 100 µM (inactive) | > 100 µM (inactive) | > 100 µM (inactive) | > 100 µM (inactive) |  |  |
| Oc1cc(-c2cccc(Cl)c2)nc2cc3c(cc12)OCO3 | 0.912 µM (active) | 0.647 µM (active) | 6.31 µM (inactive) | 0.269 µM | 0.201 µM (active) | 18.8 µM (inactive) |  | 0.342 µM (active) |  | 0.308 µM (active) | 2.47 µM (inactive) | 1.85 µM (inactive) | 0.274 µM (active) |  |  |  | 0.951 µM (active) | 0.0377 µM (active) | 0.371 µM (active) | 0.157 µM (active) |
| O=C(N/C(=C/c1ccc(Cl)cc1Cl)c1nc2ccccc2s1)c1ccccc1 | 9.68 µM (inactive) | 18.6 µM (inactive) | 21 µM (inactive) | 4.37 µM | 16.6 µM (inactive) | 17.3 µM (inactive) | 7.78 µM (inactive) | 9.27 µM (inactive) | 31 µM (inactive) | 18 µM (inactive) | 18.1 µM (inactive) | 18.3 µM (inactive) | 17.8 µM (inactive) | 15.6 µM (inactive) | 12.7 µM (inactive) | 18.5 µM (inactive) | 11.8 µM (inactive) | 15.6 µM (inactive) |  | 32.4 µM (inactive) |
| CC(NCc1c(O)ccc2c(-c3ccccc3)cc(=O)oc12)C(=O)O (centres undefined) | > 100 µM (inactive) | > 100 µM (inactive) | > 100 µM (inactive) | > 100 µM | > 100 µM (inactive) | > 100 µM (inactive) | > 100 µM (inactive) | > 100 µM (inactive) | > 100 µM (inactive) | > 100 µM (inactive) | > 100 µM (inactive) | > 100 µM (inactive) | > 100 µM (inactive) | > 100 µM (inactive) | > 100 µM (inactive) | > 100 µM (inactive) | > 100 µM (inactive) | > 100 µM (inactive) |  | > 100 µM (inactive) |
| O=C(/C=C(\C(=O)c1cccs1)c1cccs1)c1ccc(C(=O)/C=C(\C(=O)c2cccs2)c2cccs2)cc1 | > 100 µM (inactive) | > 100 µM (inactive) | > 100 µM (inactive) | > 100 µM | > 100 µM (inactive) |  |  | > 100 µM (inactive) | > 100 µM (inactive) | > 100 µM (inactive) | > 100 µM (inactive) | > 100 µM (inactive) | > 100 µM (inactive) | > 100 µM (inactive) | > 100 µM (inactive) | > 100 µM (inactive) |  | > 100 µM (inactive) |  | > 100 µM (inactive) |
| NCCSC1(O)C(=O)c2ccccc2-c2ccccc21 (centres undefined) | 1.36 µM (inactive) | 0.262 µM (active) | 1.73 µM (inactive) | 1.49 µM | 1.64 µM (inactive) | 1.53 µM (inactive) | < 0.01 µM (active) | 0.0472 µM (active) | 1.64 µM (inactive) | 1.25 µM (inactive) | 0.719 µM (active) | 1.85 µM (inactive) | 1.78 µM (inactive) | 1.21 µM (inactive) | < 0.01 µM (active) | 0.382 µM (active) | 0.143 µM (active) | < 0.01 µM (active) |  | 1.09 µM (active) |
| COc1cc(N(CCC#N)CCC#N)ccc1C(=N/NC(=O)c1cc(Br)ccc1O)/N=N/c1ccc(C)cc1 | 17.3 µM (inactive) | 22.8 µM (inactive) | 23.9 µM (inactive) | 12.2 µM | 18.5 µM (inactive) | 61.4 µM (inactive) | 22.9 µM (inactive) | 24.3 µM (inactive) | 19.3 µM (inactive) | 20.6 µM (inactive) | 28.8 µM (inactive) | 15.7 µM (inactive) | 15.5 µM (inactive) | 25.1 µM (inactive) | 31 µM (inactive) | 37.2 µM (inactive) | 17 µM (inactive) | 44.9 µM (inactive) |  | 15.4 µM (inactive) |
| CN(C)C(n1cc2c(c1)-c1ccc(Cl)cc1C(c1ccccc1F)=NC2)n1cc2c(c1)-c1ccc(Cl)cc1C(c1ccccc1F)=NC2 | > 100 µM (inactive) | > 100 µM (inactive) |  | > 100 µM | > 100 µM (inactive) | 20.2 µM (inactive) | 87.5 µM (inactive) | > 100 µM (inactive) | 20.2 µM (inactive) | 46.6 µM (inactive) | 52.4 µM (inactive) | > 100 µM (inactive) | 51.3 µM (inactive) | 21.5 µM (inactive) | 26.3 µM (inactive) | > 100 µM (inactive) | 3.31 µM (inactive) | > 100 µM (inactive) | 8.17 µM (inactive) | 51.3 µM (inactive) |
| O=C(O)c1cc2ccccc2c(/N=N/c2ccc(S(=O)(=O)Nc3ccccn3)cc2)c1O | > 100 µM (inactive) | > 100 µM (inactive) | > 100 µM (inactive) | > 100 µM | > 100 µM (inactive) | > 100 µM (inactive) | > 100 µM (inactive) | > 100 µM (inactive) | > 100 µM (inactive) | > 100 µM (inactive) | > 100 µM (inactive) | > 100 µM (inactive) | > 100 µM (inactive) | > 100 µM (inactive) | > 100 µM (inactive) | > 100 µM (inactive) |  | > 100 µM (inactive) |  | > 100 µM (inactive) |
| CCN(C(=S)N[C@@H](Cc1ccccc1)C(=O)N[C@@H](CC(C)C)C(=O)OC)c1ccccc1 | > 100 µM (inactive) | > 100 µM (inactive) | > 100 µM (inactive) | 49 µM | > 100 µM (inactive) | > 100 µM (inactive) | > 100 µM (inactive) | 24 µM (inactive) | > 100 µM (inactive) | 63.1 µM (inactive) | 78.2 µM (inactive) | 49.2 µM (inactive) | 58.2 µM (inactive) | > 100 µM (inactive) | > 100 µM (inactive) | 43.2 µM (inactive) | 71.4 µM (inactive) | > 100 µM (inactive) |  |  |
| Cc1ccc(/C=C/C(=N/NC(=O)N/N=C(/C=C/c2ccc(C)cc2)C(C)C)C(C)C)cc1 | 9.77 µM (inactive) | > 10 µM (inactive) | > 10 µM (inactive) | > 10 µM |  | > 10 µM (inactive) | 3.93 µM (inactive) | > 10 µM (inactive) | > 10 µM (inactive) | > 10 µM (inactive) | > 10 µM (inactive) | > 10 µM (inactive) | > 10 µM (inactive) |  | > 10 µM (inactive) | > 10 µM (inactive) | > 10 µM (inactive) | > 10 µM (inactive) |  | 4.42 µM (inactive) |
| Cc1ccc2c(c1)C(O)(c1ccccc1)CCS2 (centres undefined) | 32.6 µM (inactive) | 36.7 µM (inactive) | 32.1 µM (inactive) | 19.5 µM | 22.4 µM (inactive) | 27.6 µM (inactive) | 21.3 µM (inactive) | 18.3 µM (inactive) | 68.5 µM (inactive) | 25.8 µM (inactive) | 32.8 µM (inactive) | 30.3 µM (inactive) | 34.8 µM (inactive) | 37.6 µM (inactive) | 30.1 µM (inactive) | 20.2 µM (inactive) | 28.5 µM (inactive) | 27.7 µM (inactive) |  | 28.2 µM (inactive) |
| Nc1c(C(=O)O)nnc2cc(Cl)ccc12 | > 100 µM (inactive) | > 100 µM (inactive) | > 100 µM (inactive) | > 100 µM | 32 µM (inactive) | > 100 µM (inactive) | > 100 µM (inactive) | > 100 µM (inactive) |  | > 100 µM (inactive) | > 100 µM (inactive) | > 100 µM (inactive) | > 100 µM (inactive) |  | > 100 µM (inactive) | > 100 µM (inactive) | > 100 µM (inactive) | > 100 µM (inactive) | 85.3 µM (inactive) | > 100 µM (inactive) |
| CN[C@@H]1[C@H](O)[C@H](NC)[C@H]2O[C@@]3(O)C(=O)C[C@@H](C)O[C@H]3O[C@@H]2[C@H]1O [SPECTINOMYCIN SULFATE] | > 100 µM (inactive) | > 100 µM (inactive) |  | > 100 µM | > 100 µM (inactive) | > 100 µM (inactive) | > 100 µM (inactive) | > 100 µM (inactive) | > 100 µM (inactive) | > 100 µM (inactive) |  | > 100 µM (inactive) | > 100 µM (inactive) | > 100 µM (inactive) | > 100 µM (inactive) | > 100 µM (inactive) | > 100 µM (inactive) | > 100 µM (inactive) | > 100 µM (inactive) | > 100 µM (inactive) |
| C=C1C(=O)O[C@@H]2[C@H]1CC[C@H](C)[C@]1(O)CCC(=O)[C@@]21C [CORONOPILIN] | > 10 µM (inactive) | > 10 µM (inactive) | > 10 µM (inactive) | > 10 µM | > 10 µM (inactive) |  | > 10 µM (inactive) | 5.73 µM (inactive) | > 10 µM (inactive) | > 10 µM (inactive) | > 10 µM (inactive) | > 10 µM (inactive) |  | > 10 µM (inactive) | > 10 µM (inactive) | > 10 µM (inactive) | 4.16 µM (inactive) | > 10 µM (inactive) |  | 3.66 µM (inactive) |
